Laboratory results as given in US20250230193A1, “CYCLIC COMPOUND HAVING SELECTIVE KRAS INHIBITORY EFFECT ON HRAS AND NRAS” (CHUGAI SEIYAKU KABUSHIKI KAISHA, priority 2022, published 2025).
Where a SMILES comes first, the peptide text is derived from it. Bridges are numbered along the chain shown (N, C = ends). [ ]: non-standard residue; d: D form. The star is where a group is joined. hPhe(3-Cl-4-CF3) = N[C@@H](CCc1ccc(C(F)(F)F)c(Cl)c1)C(=O)O; NPrPhe(4-CF3) = CCCN[C@@H](Cc1ccc(C(F)(F)F)cc1)C(=O)O; NMePhe(4-CF3) = CN[C@@H](Cc1ccc(C(F)(F)F)cc1)C(=O)O; NPrPhe(4-Me) = CCCN[C@@H](Cc1ccc(C)cc1)C(=O)O; NEtPhe(4-Me) = CCN[C@@H](Cc1ccc(C)cc1)C(=O)O; NMeGly(cPent) = CN[C@H](C(=O)O)C1CCCC1; Hyp = O=C(O)[C@@H]1C[C@@H](O)CN1; NMeD = CN[C@@H](CC(=O)O)C(=O)O; NMeL = CN[C@@H](CC(C)C)C(=O)O; Pip = O=C(O)[C@@H]1CCCCN1; Morpholide = C1CN(*)CCO1; Ac5c = NC1(C(=O)O)CCCC1; Aze = O=C(O)[C@@H]1CCN1; NEtG = CCNCC(=O)O; X45 = C1CCC(*)OC1; Sar = CNCC(=O)O

Experiments:
[1] = biological target: GDP-bound HRAS wild-type protein (Homo sapiens, UniProt P01112); experiment: Binding to HRAS by surface plasmon resonance (SPR), Single Cycle Kinetics; settings: KD ratio HRAS/KRAS, SPR
Chain of GDP-bound HRAS wild-type protein (P01112 whole entry): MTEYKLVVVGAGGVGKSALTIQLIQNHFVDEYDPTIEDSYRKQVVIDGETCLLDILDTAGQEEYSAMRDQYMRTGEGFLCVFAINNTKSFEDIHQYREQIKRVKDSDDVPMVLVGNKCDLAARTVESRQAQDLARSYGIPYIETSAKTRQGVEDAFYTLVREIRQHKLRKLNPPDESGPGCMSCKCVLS

[2] = biological target: GDP-bound NRAS wild-type protein (Homo sapiens, UniProt P01111); experiment: Binding to NRAS by surface plasmon resonance (SPR), Single Cycle Kinetics; settings: KD ratio NRAS/KRAS, SPR
Chain of GDP-bound NRAS wild-type protein (P01111 whole entry): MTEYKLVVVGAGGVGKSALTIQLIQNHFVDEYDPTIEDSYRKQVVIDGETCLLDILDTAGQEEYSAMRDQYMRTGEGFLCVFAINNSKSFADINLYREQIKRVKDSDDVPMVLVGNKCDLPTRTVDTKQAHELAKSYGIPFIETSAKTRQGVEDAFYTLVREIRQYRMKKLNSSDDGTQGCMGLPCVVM

SMILES	HRAS/KRAS (ratio of KD for GDP-bound HRAS wild-type to KD for KRAS) [1]	NRAS/KRAS (ratio of KD for GDP-bound NRAS wild-type to KD for KRAS) [2]
CC[C@H](C)[C@@H]1NC(=O)[C@H](CC(C)C)N(C)C(=O)C[C@@H](C(=O)N2CCOCC2)N(C)C(=O)[C@H](C2CCCC2)N(C)C(=O)C2(CCCC2)NC(=O)[C@@H]2C[C@@H](OC3CCCCO3)CN2C(=O)[C@H](CCc2ccc(C(F)(F)F)c(Cl)c2)NC(=O)CN(C)C(=O)[C@H](Cc2ccc(C)cc2)N(CC)C(=O)CN(C)C(=O)CN(C)C1=O (stereo partly shown) [PP0068] ([NMeL]I[Sar][Sar][NEtPhe(4-Me)][Sar][hPhe(3-Cl-4-CF3)][Hyp](X45)[Ac5c][NMeGly(cPent)][NMeD]-Morpholide; lactam N-11)	C (A compound having a KD ratio of 0.1 or more and less than 3 is denoted as C)	C (A compound having a KD ratio of 0.1 or more and less than 3 is denoted as C)
CCCN1C(=O)CN(CC)C(=O)CN(C)C(=O)[C@H]([C@@H](C)CC)NC(=O)[C@H](CC(C)C)N(C)C(=O)C[C@@H](C(=O)N2CCOCC2)N(C)C(=O)[C@H](C2CCCC2)N(C)C(=O)C2(CCCC2)NC(=O)[C@@H]2CCCN2C(=O)[C@H](CCc2ccc(C(F)(F)F)c(Cl)c2)NC(=O)CN(CC)C(=O)[C@@H]1Cc1ccc(C)cc1 [PP0069] ([NMeL]I[Sar][NEtG][NPrPhe(4-Me)][NEtG][hPhe(3-Cl-4-CF3)]P[Ac5c][NMeGly(cPent)][NMeD]-Morpholide; lactam N-11)	C (A compound having a KD ratio of 0.1 or more and less than 3 is denoted as C)	C (A compound having a KD ratio of 0.1 or more and less than 3 is denoted as C)
CCCN1C(=O)[C@@H]2CCN2C(=O)[C@@H]2CCCCN2C(=O)[C@H]([C@@H](C)CC)NC(=O)[C@H](CC(C)C)N(C)C(=O)C[C@@H](C(=O)N2CCOCC2)N(C)C(=O)[C@H](C2CCCC2)N(C)C(=O)C2(CCCC2)NC(=O)[C@@H]2CCCN2C(=O)[C@H](CCc2ccc(C(F)(F)F)c(Cl)c2)NC(=O)CN(C)C(=O)[C@@H]1Cc1ccc(C)cc1 [PP0070] ([NMeL]I[Pip][Aze][NPrPhe(4-Me)][Sar][hPhe(3-Cl-4-CF3)]P[Ac5c][NMeGly(cPent)][NMeD]-Morpholide; lactam N-11)	B (a compound having 3 or more and less than 10 is denoted as B)	C (A compound having a KD ratio of 0.1 or more and less than 3 is denoted as C)
CC[C@H](C)[C@@H]1NC(=O)[C@H](CC(C)C)N(C)C(=O)C[C@@H](C(=O)N2CCOCC2)N(C)C(=O)[C@H](C2CCCC2)N(C)C(=O)C2(CCCC2)NC(=O)[C@@H]2CCCN2C(=O)[C@H](CCc2ccc(C(F)(F)F)c(Cl)c2)NC(=O)CN(C)C(=O)[C@H](Cc2ccc(C(F)(F)F)cc2)N(C)C(=O)CN(C)C(=O)CN(C)C1=O [PP0076] ([NMeL]I[Sar][Sar][NMePhe(4-CF3)][Sar][hPhe(3-Cl-4-CF3)]P[Ac5c][NMeGly(cPent)][NMeD]-Morpholide; lactam N-11)	C (A compound having a KD ratio of 0.1 or more and less than 3 is denoted as C)	C (A compound having a KD ratio of 0.1 or more and less than 3 is denoted as C)
CCCN1C(=O)[C@@H]2CCN2C(=O)[C@@H]2CCCCN2C(=O)[C@H]([C@@H](C)CC)NC(=O)[C@H](CC(C)C)N(C)C(=O)C[C@@H](C(=O)N2CCOCC2)N(C)C(=O)[C@H](C2CCCC2)N(C)C(=O)C2(CCCC2)NC(=O)[C@@H]2CCCN2C(=O)[C@H](CCc2ccc(C(F)(F)F)c(Cl)c2)NC(=O)CN(C)C(=O)[C@@H]1Cc1ccc(C(F)(F)F)cc1 [PP0077] ([NMeL]I[Pip][Aze][NPrPhe(4-CF3)][Sar][hPhe(3-Cl-4-CF3)]P[Ac5c][NMeGly(cPent)][NMeD]-Morpholide; lactam N-11)	B (a compound having 3 or more and less than 10 is denoted as B)	C (A compound having a KD ratio of 0.1 or more and less than 3 is denoted as C)
